Assay results taken from patent publication US20160221965A1, “DISUBSTITUTED TRIFLUOROMETHYL PYRIMIDINONES AND THEIR USE” (BAYER PHARMA AKTIENGESELLSCHAFT, priority 2013, published 2016).

Assays:
Type in all cases: cell-based
human CCR2 = biological target: T1, human CCR2 (Homo sapiens, UniProt P41597); test: Functional Ca2+ release test (B-1); details: Chem-1 cell line transfected with human CCR2, inhibition of MCP-1 effect, MCP-1 at EC50 (about 5 nM), Fluo-4
T1 construct: host or cells: Chem-1 cell line
T1 sequence (P41597 1-360 isoform P41597-2): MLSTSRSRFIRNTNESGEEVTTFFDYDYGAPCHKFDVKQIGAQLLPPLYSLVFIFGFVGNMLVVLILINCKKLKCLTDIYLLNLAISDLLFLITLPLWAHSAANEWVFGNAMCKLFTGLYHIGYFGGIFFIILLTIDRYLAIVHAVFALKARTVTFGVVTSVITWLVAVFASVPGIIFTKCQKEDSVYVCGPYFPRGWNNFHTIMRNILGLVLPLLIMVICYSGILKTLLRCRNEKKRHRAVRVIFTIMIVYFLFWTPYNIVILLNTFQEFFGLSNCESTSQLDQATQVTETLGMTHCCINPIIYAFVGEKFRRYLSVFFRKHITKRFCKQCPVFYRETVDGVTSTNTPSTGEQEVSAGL
Description: The antagonistic action of test substances on CCR2 was determined in a functional Ca^2+ release test. Binding of CCL2/MCP-1 to CCR2 leads to a change in the conformation of the receptor resulting in Gi/Gq protein activation and intracellular signal cascade. This involves, inter alia, an intracellular Ca^2+ release. The test cell used was a Chem-1 cell line transfected with human CCR2 (ChemiSCREEN™ CCR2B Calcium-Optimized FLIPR Cell Line, Merck Millipore).
(§1) The test substances were dissolved in dimethyl sulphoxide (DMSO) at a concentration of 10 mM and serially diluted with DMSO in steps of 1:3.16 for a 10-point dose/activity analysis. According to the desired test concentrations, the substances were pre-diluted in Tyrode with 2 mM CaCl2 and 0.05% BSA.
The cells, cultivated in DMEM high glucose [supplemented with 10% FCS, 1 mM pyruvate, 15 mM HEPES, 500 μg/ml geniticin and non-essential amino acids (NEAA)], were sown at 5000 cells/25 μl in 384 well, μCLEAR/black cell culture plates from Greiner (#781092) and incubated at 37° C. for 24 h. The sowing medium consisted of DMEM high glucose [supplemented with 5% FCS, 1 mM pyruvate, 15 mM HEPES, 50 U/ml penicillin, 50 μg/ml streptomycin and non-essential amino acids (NEAA)]. The medium was then removed and the cells were charged for 60 min at 37° C. with Fluo-4 dye [25 μl Tyrode with 3 μM Fluo-4 AM (1 mM DMSO stock solution), 0.4 mg/ml Brilliant Black, 2.5 mM probenicid, 0.03% Pluronic F-127]. The cells were pre-incubated for 10 min with 10 μl of the test substances diluted in buffer, and 20 μl of agonist solution (MCP-1 in Tyrode with 0.05% BSA) were then added. MCP-1 was employed at the concentration which corresponds to the EC50 which had been determined in a preliminary test (usually about 5 nM). Ca^2+ release was monitored over a period of 120 s in 1 s increments in a proprietary fluorescence imaging reader. The molar concentration of the test substance which caused 50% inhibition of the MCP-1 effect (IC50) was determined using a 4-parameter logistic function (Hill function).

murine CCR2 [1] = biological target: T2, murine CCR2 (Mus musculus, UniProt P51683); test: Functional β-arrestin recruiting test with human MCP-1 (B-2a); details: U2OS β-arrestin cell line transfected with murine CCR2; agonist human MCP-1 at EC50 (about 3 nM)
T2 construct: host or cells: U2OS β-arrestin cell line
Description: (§2) The antagonistic action of test substances on CCR2 was determined in a β-arrestin test. The PathHunter β-arrestin GPCR test system (DiscoveRx Corporation, Ltd.) is a cell-based functional method for detecting binding of β-arrestin to an activated receptor. The molecular basis is a β-galactosidase complementation measured by the enzymatic conversion of a chemiluminescent substrate. The test cell used was a U2OS β-arrestin cell line transfected with murine CCR2 (93-0543C3, DiscoveRx Corporation, Ltd.).
as §1
(§3) The cells, cultivated in MEM Eagle (supplemented with 10% FCS, 50 U/ml of penicillin, 50 μg/ml of streptomycin, 250 μg/ml of hygromycin and 500 μg/ml of geniticin), were sown at 2000 cells/25 μl in 384 well, μCLEAR/black cell culture plates from Greiner (#781092) and incubated at 37° C. for 24 h. The sowing medium consisted of Opti-MEM (supplemented with 1% FCS, 50 U/ml of penicillin and 50 μg/ml of streptomycin). The cells were pre-incubated for 10 min with 10 μl of the test substances diluted in buffer, and 10 μl of agonist solution [human MCP-1 (PeproTech, #300-04) in Tyrode with 0.05% BSA] were then added. The human MCP-1 was employed at the concentration which corresponds to the EC50 which had been determined in a preliminary test (usually about 3 nM). After 90 min of incubation at 37° C., the solution was removed, and recruitment of β-arrestin to CCR2 was detected with the aid of the PathHunter detection reagent (93-001, DiscoveRx Corporation, Ltd.) according to the instructions of the manufacturer. Luminescence was measured after an incubation time of 60 min using a proprietary luminescence imaging measuring instrument. The molar concentration of the test substance which caused 50% inhibition of the MCP-1 effect (IC50) was determined using a 4-parameter logistic function (Hill function).

murine CCR2 [2] = biological target: T2, murine CCR2; test: Functional β-arrestin recruiting test with murine MCP-1 (B-2b); details: U2OS β-arrestin cell line transfected with murine CCR2; agonist murine MCP-1
Description: as §2, §1, §3
The test was carried out in a manner identical to that described above under B-2a, but using murine MCP-1 (PeproTech, #250-10) as agonist.

T2 sequence (P51683 whole entry): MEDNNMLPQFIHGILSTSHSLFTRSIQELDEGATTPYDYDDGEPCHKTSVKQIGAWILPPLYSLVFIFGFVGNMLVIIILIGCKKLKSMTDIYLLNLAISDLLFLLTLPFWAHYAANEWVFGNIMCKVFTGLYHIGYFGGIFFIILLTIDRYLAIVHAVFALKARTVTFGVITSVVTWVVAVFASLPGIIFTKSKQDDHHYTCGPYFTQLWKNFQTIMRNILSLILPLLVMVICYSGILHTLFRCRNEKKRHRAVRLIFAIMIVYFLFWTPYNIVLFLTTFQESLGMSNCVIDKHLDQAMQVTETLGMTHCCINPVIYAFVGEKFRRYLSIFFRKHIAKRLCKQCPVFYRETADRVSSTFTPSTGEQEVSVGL

IC50 (human CCR2)	IC50 (murine CCR2 [1])	IC50 (murine CCR2 [2])	Compound
91 nM	800 nM		Cc1ccc(Cc2c(C(F)(F)F)nc(C3CC3)[nH]c2=O)cc1Cl [Example 29, 5-(3-chloro-4-methylbenzyl)-2-cyclopropyl-6-(trifluoromethyl)pyrimidin-4(3H)-one]
100 nM	550 nM		O=c1[nH]c(C2CC2)nc(C(F)(F)F)c1Cc1ccc(Cl)c(Cl)c1 [Example 30, 2-cyclopropyl-5-(3,4-dichlorobenzyl)-6-(trifluoromethyl)pyrimidin-4(3H)-one]
120 nM	220 nM		CCc1nc(C(F)(F)F)c(Cc2ccc(Cl)c(Cl)c2)c(=O)[nH]1 [Example 31, 5-(3,4-dichlorobenzyl)-2-ethyl-6-(trifluoromethyl)pyrimidin-4(3H)-one]
220 nM	540 nM		CCc1nc(C(F)(F)F)c(Cc2ccc(Cl)c(F)c2)c(=O)[nH]1 [Example 32, 5-(4-chloro-3-fluorobenzyl)-2-ethyl-6-(trifluoromethyl)pyrimidin-4(3H)-one]
15 nM	74 nM		CCc1nc(C(F)(F)F)c(Oc2ccc(Cl)c(Cl)c2)c(=O)[nH]1 [Example 33, 5-(3,4-dichlorophenoxy)-2-ethyl-6-(trifluoromethyl)pyrimidin-4(3H)-one]
150 nM	520 nM		O=c1[nH]c(C2CC2)nc(C(F)(F)F)c1Cc1ccc(F)c(Cl)c1 [Example 34, 5-(3-chloro-4-fluorobenzyl)-2-cyclopropyl-6-(trifluoromethyl)pyrimidin-4(3H)-one]
150 nM	3700 nM		NC(=O)Cc1nc(C(F)(F)F)c(Cc2ccc(C(F)(F)F)c(Cl)c2)c(=O)[nH]1 [Example 35, 2-{5-[3-Chloro-4-(trifluoromethyl)benzyl]-6-oxo-4-(trifluoromethyl)-1,6-dihydropyrimidin-2-yl}acetamide]
110 nM	1600 nM		NC(=O)Cc1nc(C(F)(F)F)c(Oc2ccc(F)c(Cl)c2)c(=O)[nH]1 [Example 36]
480 nM	3800 nM		NC(=O)Cc1nc(C(F)(F)F)c(Oc2ccc(F)c(F)c2)c(=O)[nH]1 [Example 37]
320 nM	3300 nM		NC(=O)Cc1nc(C(F)(F)F)c(Oc2cccc(Cl)c2)c(=O)[nH]1 [Example 38]
160 nM	1800 nM		NC(=O)Cc1nc(C(F)(F)F)c(Oc2ccc(Cl)c(F)c2)c(=O)[nH]1 [Example 39]
150 nM	970 nM		NC(=O)Cc1nc(C(F)(F)F)c(Cc2ccc(Cl)c(F)c2)c(=O)[nH]1 [Example 40]
270 nM	2000 nM		NC(=O)Cc1nc(C(F)(F)F)c(Cc2cccc(C(F)(F)F)c2)c(=O)[nH]1 [Example 41]
400 nM	2800 nM		NC(=O)Cc1nc(C(F)(F)F)c(Cc2cc(F)cc(C(F)(F)F)c2)c(=O)[nH]1 [Example 42]
270 nM	880 nM		NC(=O)Cc1nc(C(F)(F)F)c(Cc2cccc(Cl)c2)c(=O)[nH]1 [Example 43]
90 nM	420 nM		NC(=O)Cc1nc(C(F)(F)F)c(Cc2ccc(F)c(Cl)c2)c(=O)[nH]1 [Example 44]
8 nM	130 nM		NC(=O)Cc1nc(C(F)(F)F)c(Oc2ccc(Cl)c(C(F)(F)F)c2)c(=O)[nH]1 [Example 45]
20 nM	440 nM		NC(=O)Cc1nc(C(F)(F)F)c(Oc2ccc(Cl)c(Cl)c2)c(=O)[nH]1 [Example 46]

IC50 (human CCR2)	IC50 (murine CCR2 [1])	IC50 (murine CCR2 [2])	Compound
49 nM	830 nM		Cc1ccc(Cc2c(C(F)(F)F)nc(CC(N)=O)[nH]c2=O)cc1Cl [Example 47]
31 nM	300 nM		NC(=O)Cc1nc(C(F)(F)F)c(Cc2ccc(Cl)c(C(F)(F)F)c2)c(=O)[nH]1 [Example 48]
91 nM	380 nM		NC(=O)Cc1nc(C(F)(F)F)c(Oc2ccc(F)c(C(F)(F)F)c2)c(=O)[nH]1 [Example 49]
65 nM	460 nM		NC(=O)Cc1nc(C(F)(F)F)c(Cc2ccc(Cl)c(Cl)c2)c(=O)[nH]1 [Example 50]
14 nM	230 nM		O=c1[nH]c(CO)nc(C(F)(F)F)c1Cc1ccc(Cl)c(Cl)c1 [Example 51, 5-(3,4-Dichlorobenzyl)-2-(hydroxymethyl)-6-(trifluoromethyl)pyrimidin-4(3H)-one]
7.8 nM	140 nM		O=c1[nH]c(CO)nc(C(F)(F)F)c1Oc1ccc(F)c(Cl)c1 [Example 52]
70 nM	620 nM		O=c1[nH]c(CO)nc(C(F)(F)F)c1Oc1ccc(F)c(F)c1 [Example 53]
10 nM	140 nM		O=c1[nH]c(CO)nc(C(F)(F)F)c1Oc1cccc(Cl)c1 [Example 54]
6.2 nM	120 nM		O=c1[nH]c(CO)nc(C(F)(F)F)c1Oc1ccc(Cl)c(F)c1 [Example 55]
17 nM	330 nM		NC(=O)Nc1nc(C(F)(F)F)c(Cc2ccc(Cl)c(Cl)c2)c(=O)[nH]1 [Example 56, 1-[5-(3,4-Dichlorobenzyl)-6-oxo-4-(trifluoromethyl)-1,6-dihydropyrimidin-2-yl]urea]
1.8 nM		2270 nM	Nc1nc(C(F)(F)F)c(Oc2ccc(Cl)c(OC(F)(F)F)c2)c(=O)[nH]1 [Example 57]
381 nM		60000 nM	Nc1nc(C(F)(F)F)c(Cc2ccc(Cl)nc2)c(=O)[nH]1 [Example 58]
11 nM		7280 nM	Nc1nc(C(F)(F)F)c(Cc2cnc(Cl)c(Cl)c2)c(=O)[nH]1 [Example 59]
117 nM		1430 nM	Nc1nc(C(F)(F)F)c([S+]([O-])c2ccc(Cl)c(C(F)(F)F)c2)c(=O)[nH]1 (stereo not drawn) [Example 60, 2-Amino-5-{[4-chloro-3-(trifluoromethyl)phenyl]sulphinyl}-6-(trifluoromethyl)pyrimidin-4(3H)-one]
110 nM		2950 nM	Nc1nc(C(F)(F)F)c(S(=O)(=O)c2ccc(Cl)c(C(F)(F)F)c2)c(=O)[nH]1 [Example 61]
542 nM		1340 nM	Nc1nc(C(F)(F)F)c([S+]([O-])c2ccc(Cl)c(Cl)c2)c(=O)[nH]1 (stereo not drawn) [Example 62]
55 nM	1000 nM		CN(C)c1nc(C(F)(F)F)c(Oc2ccc(Cl)c(Cl)c2)c(=O)[nH]1 [Example 67]
49 nM	370 nM		O=c1[nH]c(CCO)nc(C(F)(F)F)c1Oc1ccc(Cl)c(Cl)c1 [Example 68]
